From article PMC10353189, “Hybridization of the effective pharmacophores for treatment of epilepsy: design, synthesis, in vivo anticonvulsant activity, and in silico studies of phenoxyphenyl-1,3,4-oxadiazole-thio-N-phenylacetamid hybrids” (BMC Chemistry, 2023)
Read-outs that look alike come from different tables or passages of the source.

Experiments:
[1] = system: PTZ-induced lethal convulsion in mice; test: Pentylenetetrazole (PTZ) induced seizure test; assay type: in vivo, Male NMRI mice; settings: Mus musculus; for responders at 2 mg/kg: dose 2 mg/kg ip; for responders at 5 mg/kg: dose 5 mg/kg ip; for responders at 1 mg/kg: dose 1 mg/kg ip; for responders at 50 mg/kg: dose 50 mg/kg ip; for responders at 10 mg/kg: dose 10 mg/kg ip
[2] = system: MES-induced seizure in mice; test: Maximal electroshock (MES) induced seizure test; assay type: in vivo, Male NMRI mice; settings: for responders at 2 mg/kg / responders at 5 mg/kg / responders at 10 mg/kg / responders at 1 mg/kg / responders at 20 mg/kg / responders at 50 mg/kg / responders at 100 mg/kg: Mus musculus; for responders at 2 mg/kg / MES Number of animals protected / Number of tested animals: dose 2 mg/kg ip; for responders at 5 mg/kg: dose 5 mg/kg ip; for responders at 10 mg/kg: dose 10 mg/kg ip; for MES Number of animals protected / Number of tested animals: with flumazenil 1 mg/kg ip 15 min before seizure induction; for responders at 1 mg/kg: dose 1 mg/kg ip; for responders at 20 mg/kg: dose 20 mg/kg ip; for responders at 50 mg/kg: dose 50 mg/kg ip; for responders at 100 mg/kg: dose 100 mg/kg ip
[3] = 30 min before PTZ 100 mg/kg ip, read-out: PTZ Number of animals protected / Number of tested animals
[4] = PTZ 100 mg/kg ip, read-out: PTZ %Protection
[5] = MES 50 mA, 60 Hz, 0.2 s, read-out: MES Number of animals protected / Number of tested animals (converted)
[6] = 30 min before PTZ 100 mg/kg ip, read-out: PTZ Number of animals protected / Number of tested animals (converted)
[7] = MES 50 mA, 60 Hz, 0.2 s, read-out: MES Number of animals protected / Number of tested animals

SMILES | responders at 2 mg/kg [2, 5] | responders at 2 mg/kg ([2]; read-out: MES %Protection) | responders at 5 mg/kg [2, 5] | responders at 5 mg/kg ([2]; read-out: MES %Protection) | responders at 10 mg/kg [2, 5] | responders at 10 mg/kg ([2]; read-out: MES %Protection) | responders at 5 mg/kg [1, 6] | responders at 5 mg/kg [1, 4] | responders at 1 mg/kg [2, 5] | responders at 1 mg/kg ([2]; read-out: MES %Protection) | responders at 20 mg/kg [2, 5] | responders at 20 mg/kg ([2]; read-out: MES %Protection) | other results
O=C(CSc1nnc(-c2ccccc2Oc2ccccc2)o1)Nc1ccccc1[N+](=O)[O-] [Compound 8k, N-(2-nitrophenyl)-2-((5-(2-phenoxyphenyl)-1,3,4-oxadiazol-2-yl)thio)acetamide] | 75% | 75% | 75% | 75% | 50% | 50% | – | – | – | – | – | – | responders at 2 mg/kg [1, 3]: 0%; responders at 2 mg/kg [1, 4]: 0%; MES Number of animals protected / Number of tested animals [2]: 0/4
O=C(CSc1nnc(-c2ccccc2Oc2ccccc2)o1)Nc1cccc(Br)c1 [Compound 8i, N-(3-bromophenyl)-2-((5-(2-phenoxyphenyl)-1,3,4-oxadiazol-2-yl)thio)acetamide] | – | – | 50% | 50% | 25% | 25% | 0% | 0% | 0% | 0% | 50% | 50% | –
O=C(CSc1nnc(-c2ccccc2Oc2ccccc2)o1)Nc1ccc(F)cc1F [Compound 8e, N-(2,4-difluorophenyl)-2-((5-(2-phenoxyphenyl)-1,3,4-oxadiazol-2-yl)thio)acetamide] | – | – | 25% | 25% | 25% | 25% | 0% | 0% | 25% | 25% | – | – | –
Cc1c(NC(=O)CSc2nnc(-c3ccccc3Oc3ccccc3)o2)cccc1[N+](=O)[O-] [Compound 8m, N-(2-methyl-3-nitrophenyl)-2-((5-(2-phenoxyphenyl)-1,3,4-oxadiazol-2-yl)thio)acetamide] | 50% | 50% | – | – | 0% | 0% | – | – | 25% | 25% | – | – | responders at 1 mg/kg [1, 3]: 0%; responders at 1 mg/kg [1, 4]: 0%; responders at 50 mg/kg [2, 7]: 0%; responders at 50 mg/kg ([2]; read-out: MES %Protection): 0%
O=C(CSc1nnc(-c2ccccc2Oc2ccccc2)o1)Nc1ccccc1Cl [Compound 8f, N-(2-chlorophenyl)-2-((5-(2-phenoxyphenyl)-1,3,4-oxadiazol-2-yl)thio)acetamide] | – | – | 0% | 0% | 25% | 25% | 0% | 0% | – | – | 75% | 75% | –
O=C(CSc1nnc(-c2ccccc2Oc2ccccc2)o1)Nc1ccccc1 [Compound 8a, 2-((5-(2-phenoxyphenyl)-1,3,4-oxadiazol-2-yl)thio)-N -phenylacetamide] | 50% | 50% | 50% | 50% | 50% | 50% | 0% | 0% | 62.5% | 62.5% | 50% | 50% | –
COc1ccc(NC(=O)CSc2nnc(-c3ccccc3Oc3ccccc3)o2)cc1 [Compound 8c, N-(4-methoxyphenyl)-2-((5-(2-phenoxyphenyl)-1,3,4-oxadiazol-2-yl)thio)acetamide] | 25% | 25% | 25% | 25% | 25% | 25% | – | – | 0% | 0% | 75% | 75% | responders at 2 mg/kg [1, 3]: 0%; responders at 2 mg/kg [1, 4]: 0%
O=C(CSc1nnc(-c2ccccc2Oc2ccccc2)o1)Nc1cccc(Cl)c1 [Compound 8g, N-(3-chlorophenyl)-2-((5-(2-phenoxyphenyl)-1,3,4-oxadiazol-2-yl)thio)acetamide] | 25% | 25% | 50% | 50% | 75% | 75% | 0% | 0% | 62.5% | 62.5% | 62.5% | 62.5% | –
Cc1ccc(NC(=O)CSc2nnc(-c3ccccc3Oc3ccccc3)o2)cc1 [Compound 8b, 2-((5-(2-phenoxyphenyl)-1,3,4-oxadiazol-2-yl)thio)-N -(p-tolyl)acetamide] | – | – | – | – | 25% | 25% | – | – | 0% | 0% | – | – | responders at 50 mg/kg [1, 3]: 0%; responders at 50 mg/kg [1, 4]: 0%; responders at 50 mg/kg [2, 7]: 40%; responders at 50 mg/kg ([2]; read-out: MES %Protection): 40%; responders at 100 mg/kg [2, 5]: 75%; responders at 100 mg/kg ([2]; read-out: MES %Protection): 75%
O=C(CSc1nnc(-c2ccccc2Oc2ccccc2)o1)Nc1cc(Cl)cc(Cl)c1 [Compound 8h, N-(3,5-dichlorophenyl)-2-((5-(2-phenoxyphenyl)-1,3,4-oxadiazol-2-yl)thio)acetamide] | 25% | 25% | 25% | 25% | 25% | 25% | 0% | 0% | 0% | 0% | 50% | 50% | –
O=C(CSc1nnc(-c2ccccc2Oc2ccccc2)o1)Nc1ccc(F)cc1 [Compound 8d, N-(4-fluorophenyl)-2-((5-(2-phenoxyphenyl)-1,3,4-oxadiazol-2-yl)thio)acetamide] | 50% | 50% | 50% | 50% | 50% | 50% | 0% | 0% | 25% | 25% | 25% | 25% | –
O=C(CSc1nnc(-c2ccccc2Oc2ccccc2)o1)Nc1ccc([N+](=O)[O-])cc1 [Compound 8L, N-(4-nitrophenyl)-2-((5-(2-phenoxyphenyl)-1,3,4-oxadiazol-2-yl)thio)acetamide] | 25% | 25% | 75% | 75% | 50% | 50% | 25% | 25% | 25% | 25% | – | – | responders at 2 mg/kg [1, 3]: 0%; responders at 2 mg/kg [1, 4]: 0%; responders at 10 mg/kg [1, 6]: 0%; responders at 10 mg/kg [1, 4]: 0%
CN1C(=O)CN=C(c2ccccc2)c2cc(Cl)ccc21 [Diazepam, reference compound] | – | – | – | – | – | – | – | – | – | – | – | – | MES Number of animals protected / Number of tested animals [2]: 0/6
O=C(CSc1nnc(-c2ccccc2Oc2ccccc2)o1)Nc1ccc(Br)cc1 [Compound 8j, N-(4-bromophenyl)-2-((5-(2-phenoxyphenyl)-1,3,4-oxadiazol-2-yl)thio)acetamide] | – | – | 50% | 50% | 50% | 50% | 0% | 0% | 25% | 25% | – | – | responders at 10 mg/kg [1, 6]: 25%; responders at 10 mg/kg [1, 4]: 25%
